In paper PMC10285648, “iTAG an optimized IMiD-induced degron for targeted protein degradation in human and murine cells” (iScience, 2023):

Experiments:
Assay type in all cases: cell-based, human
[1] = test system: cMYC-EGFP-DCD23; test: Degradation of cMYC-EGFP-DCD23 in HMEC (flow cytometry, western blotting)
Description: To systematically delineate the optimal DCD/degrader combination for targeted protein degradation, we undertook a matrix approach evaluating all 23 DCD tags against 6 small molecule degraders. […] To control for any potential off-target effects of the IMiD/CeLMOD agents that could indirectly affect the target of interest, we designed controls in which the specific DCD and the EGFP sequences were interspaced by a P2A ribosomal “skipping” sequence,[32] leading to separate translation of the DCD and the target protein (Figure 1A). These constructs were then inserted into a doxycycline-inducible lentiviral vector system and stably expressed in hTERT immortalized human mammary epithelial cells (HMEC), a suitable model to assess the functional consequences of cMYC degradation. cMYC was tagged at the C-terminus end for the initial screening experiments.
Figure 1 Design and experimental evaluation of the DCD tags (A) Representation of the experimental pipeline used to evaluate the different DCD constructs. […] Median EGFP intensity was measured in each condition using flow cytometry (3 independent experiments, normalized to the control and represented as mean ± SD). […] The protein lysates were probed for cMYC levels using western blotting. […] Target loss was evaluated either by measuring EGFP median intensity using flow cytometry or western blotting for cMYC protein (3 independent experiments, normalized to the control and represented as mean ± SD). […] Target loss was evaluated as in (D) (3 independent experiments, normalized to the control and represented as mean ± SD). […] Protein lysates were collected and probed for cMYC and p21 using western blotting. […] Protein lysates were collected and probed for cMYC and p21 using western blotting. […] These were left out as controls with no test substance.
Following degrader treatment cells were collected and DAPI was added to the cell suspension at 1 μg/mL to allow the exclusion of dead cells. EGFP signal was measured using BD LSR II flow cytometer (BD Biosciences). FlowJo 10 Software (FlowJo) was used for data processing.
Cells were lysed with SDS lysis buffer (2% SDS, 10% Glycerol, 50mM Tris pH 6.8) and boiled at 95°C for 30min. Protein concentration was measured using Pierce BCA Protein Assay Kit (ThermoFischer) following manufacturer’s recommendations. Samples were ran in NuPAGETM 10% Bis-Tris Midi electrophoresis gels (Invitrogen) using NuPAGETM MES SDS running buffer (ThermoFischer Scientific).
For western blotting membranes were blocked in a solution of 5% (w/v) bovine serum albumin (BSA; Sigma-Aldrich) dissolved in TBS-0.1% Tween 20 (Sigma-Aldrich) then incubated at 4°C overnight with the primary antibodies diluted in 5% (w/v) BSA/TBS-T. The membranes where then washed and incubated with anti-mouse and/or anti-rabbit secondary antibodies (LI-COR Biosciences) for 2h at RT diluted in 5% (w/v) BSA/TBS-T then washed and imaged using the LI-COR Odyssey (LI-COR Biosciences). Images were analyzed using Image Studio Lite software (LI-COR Biosciences).

[2] = test system: DCD23-EGFP-KRAS^[G12V]; test: Western blotting for KRAS G12V and p-MEK1(T292) in HMEC; conditions: 10uM, 48h
Experimental: Figure 2 Degradation of cytoplasmic and nuclear targets using iTAG (A) HMEC cells expressing N-terminally tagged DCD23-EGFP-KRAS^[G12V], DCD23-EGFP-EZH2, DCD23-EGFP-cMYC or their corresponding P2A control were induced with doxycycline for 24h then treated with either DMSO or the different indicated drugs at a concentration of 10uM for 4h. Median EGFP intensity was measured in each condition using flow cytometry and normalized values were represent in the Log2 Fold change relative to the DMSO control. (B) HMEC cells expressing Dox inducible C-terminally tagged KRAS^[G12V]-EGFP-DCD23, EZH2-EGFP-DCD23 or their corresponding P2A control were induced with doxycycline for 24h then treated with either DMSO or the different indicated drugs at a concentration of 10uM for 4h. Median EGFP intensity was measured in each condition using flow cytometry and normalized values were represent in the Log2 Fold Change relative to the DMSO control. […]
We then analyzed the functional consequences of KRAS^[G12V]-induced degradation. […] Subsequently, we analyzed the functional consequences of KRAS^[G12V]-induced degradation. […]
Cells were lysed with SDS lysis buffer (2% SDS, 10% Glycerol, 50mM Tris pH 6.8) and boiled at 95°C for 30min. Protein concentration was measured using Pierce BCA Protein Assay Kit (ThermoFischer) following manufacturer’s recommendations. […]

[3] = test system: FLuc-EGFP-DCD23; test: In vitro luciferase and EGFP signal in MDA-MB-231 (FLuc-EGFP-DCD23); conditions: MDA-MB-231, in vitro

O=C1CC[C@H](N2Cc3c(OCc4ccc(CN5CCOCC5)cc4)cccc3C2=O)C(=O)N1 [CC220, Iberdomide]
c-MYC levels after washout ([1]; 10μM 4h, then drug washed out, 24h or 48h): restored back to pre-treatment levels
time to significant degradation of c-MYC tagged with DCD23 ([1]; HMEC, 10uM): ≤ 15 min
p21 levels after degradation of DCD23-tagged cMYC ([1]; HMEC, 10μM, 16h, western blotting): restoration of p21 levels
DC50 ([1]; HMEC, 4h): 2 nM
DCmax at 4h ([1]; HMEC, 4h): 75%
MEK1 (T292) phosphorylation after degradation of N-terminally tagged KRAS G12V [2]: concomitant decrease in MEK1 (T292) phosphorylation
lowest concentration giving decrease in luciferase and EGFP signal [3]: ≤ 0.05 µM
time to decrease in luciferase and EGFP signal [3]: ≤ 3 h
